# Measurements: US6977254B2, “Hydroxy cyclohexenyl phenyl carboxamides tocolytic oxytocin receptor antagonists” (Wyeth, priority 2001, dated 2005)
# pIC50: −log10 of the molar value.
# Target: T1, human vasopressin V1a receptor subtype (Homo sapiens, UniProt P37288)
# T1 construct: host or cells: CHO cells, stably transfected (pZeoSV vector for the Thibonnier line); membranes
# Assay: Vasopressin binding in CHO cell membranes expressing human vasopressin V1a subtype receptors ([3H]Manning ligand)
# Settings: 100 nM, value without parentheses
# Excerpt: Vasopressin Binding in Chinese Hamster Ovary Cell Membranes Expressing Human Vasopressin V1a Subtype Receptors
# Chinese hamster ovary cells (CHO cells) stably transfected with the human vasopressin V1a subtype receptors were either obtained from Biosignal Inc., 1744 rue Williams, Montreal, Quebec, Canada or obtained from M. Thibonnier, Case Western Reserve University School of Medicine, Cleveland, Ohio.
# A. Passaging and Amplification of Cells:
# CHO cells transfected with the human vasopressin V1a subtype receptors obtained from M. Thibonnier (pZeoSV vector) are allowed to grow to confluency (approx. >90%) in T-150 flasks under sterile conditions, in a cell culture medium of F-12 Nutrient Mixture (HAM) with L-glutamine (Gibco Cat. #11765-054) containing 15 mM HEPES (Gibco Cat. #15630-080), 1% antibiotic/antimycotic (add 5 mL 100×, Gibco Cat. #15240-062 per 500 mL F-12), 250 μg/mL Zeocin (add 1.25 mL of 100 mg/mL Invitrogen R-250-01 per 500 mL F-12) and 10% Fetal Bovine Serum (Qualified, heat inactivated, Gibco Cat. #16140-063). The medium is removed by aspiration and the cells are washed with 10 mL of Hank's Balanced Salt solution (Gibco Cat. #14175-095). The salt solution is removed by aspiration and the cells are trypsinized with 5 mL of trypsin-EDTA (0.05% trypsin, 0.53 mM EDTA-4Na, Gibco Cat. #25300-070) for 1 min. The trypsin is removed by aspiration and the cells dislodged by tapping. Cell Culture medium (eg, 30 mL for 1:30 split) is immediately added and mixed well to inactivate trypsin. 1 mL of detached cells is added to new culture flasks containing fresh cell culture medium (eg, into 25 mL per T-150 flask), and mixed gently. The cells are incubated at 37° C. in 5% CO2. The medium is changed at 3 to 4 days interval (or as appropriate). The cells grow to confluency (approx. >75%-95%) within 7-8 days. All steps are done under sterile conditions.
# The cells are washed twice gently with Hank's Balanced Salt solution (e.g,. use 10 mL per T-150 flask). The excess is removed and the cells are bathed for 15-30 min. in an enzyme-free Cell Dissociation Buffer (e.g. use 8 mL Hank's Based, Gibco Cat. #13150-016 per T-150 flask) until the cells are loosened. The contents are transferred to centrifuge tubes (50 mL size) kept in ice bath. All subsequent steps are done at 4° C. The tubes are centrifuged at 300×g for 15 min (1380 rpm on SORVAL, Model RT6000D, using rotor for 50 mL tubes). The supernatant is discarded and the cells suspended in homogeneizing buffer(10 mM Tris-HCl containing 0.25 M sucrose and 1 mM EDTA, pH 7.4) ensuring that the volume of the buffer is about ten times the volume of the cell pellet. The cells are pooled into a centrifuge tube (50 mL) and homogenized with Polytron at setting 6 for 10 sec. The homogenate is transferred into a Potter-Elvjehm homogenizer and homogenized with 3 strokes. The homogenate is centrifuged at 1500×g for 10 min at 4° C. (3100 rpm using SORVAL, model RT6000D, using rotor for 50 mL tubes). The pellet is discarded. The supernatant is centrifuged at 100,000×g for 60 min. at 4° C. (Beckman L8-80M ultracentrifuge; spin at 37,500 rpm with rotor type 70 Ti for 50 mL tubes; 38,000 rpm with type 80Ti for 15 mL tubes; or 35,800 rpm with rotor type 45Ti). The supemantant is discarded and the pellet suspended in 3 to 4 mL of Tris buffer (50 mM TRIS-HCl, pH 7.4). The protein content is estimated by the Bradford or Lowry method. The volume of the membrane suspension is adjusted with the membrane buffer (50 mM Tris-HCl containing 0.1% BSA and 0.1 mM PMSF) to give 3.0 mg/mL (or as appropriate) of protein. The membranes are aliquoted and stored at −70° C.
# C. Radioligand Binding Assay: […]
# T1 sequence (P37288 whole entry): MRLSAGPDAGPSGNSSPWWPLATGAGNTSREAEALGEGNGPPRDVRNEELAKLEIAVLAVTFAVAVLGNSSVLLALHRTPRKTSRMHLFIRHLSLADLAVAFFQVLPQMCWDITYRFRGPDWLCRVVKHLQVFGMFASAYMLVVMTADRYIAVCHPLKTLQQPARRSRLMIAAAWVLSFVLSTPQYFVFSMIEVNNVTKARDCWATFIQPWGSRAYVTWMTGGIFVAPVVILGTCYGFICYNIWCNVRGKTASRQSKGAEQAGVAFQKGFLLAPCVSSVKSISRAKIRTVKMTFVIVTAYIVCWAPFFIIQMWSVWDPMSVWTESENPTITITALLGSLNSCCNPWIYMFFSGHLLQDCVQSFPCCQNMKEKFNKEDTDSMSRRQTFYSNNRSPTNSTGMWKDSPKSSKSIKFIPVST
SMILES,inhibition at 0.1 µM [%],V1a % inhibition @ 100 nM [%]
"COc1cc(C2=CCCCC2)c(Cl)cc1C(=O)N1Cc2ccc(C(=O)O)n2Cc2ccccc21 [Example 1G, 10-(5-Chloro-4-cyclohex-1-en-1-yl-2-methoxybenzoyl)-10,11-dihydro-5H-pyrrolo[2,1-c][1,4]benzodiazepine-3-carboxylic acid]",0,
"Cc1cc(C(=O)N2Cc3ccc(C(=O)C(Cl)(Cl)Cl)n3Cc3ccccc32)ccc1C1=CCCCC1 [Example 5D, 2,2,2-Trichloro-1-[10-(4-cyclohex-1-en-1-yl-3-methyl-benzoyl)-10,11-dihydro-5H-pyrrolo[2,1-c][1,4]benzodiazepin-3-yl]-methanone]",,0
"Cc1cc(C(=O)N2Cc3ccc(C(=O)O)n3Cc3ccccc32)ccc1C1=CCCCC1 [Example 5E, 10-(4-Cyclohex-1-en-1-yl-3-methyl-benzoyl)-10,11-dihydro-5H-pyrrolo[2,1-c][1,4]benzodiazepine-3-carboxylic acid]",8,
"Cc1cc(C(=O)N2Cc3ccc(C(=O)N(C)C[C@@H]4OC(=O)O[C@H]4[C@H](O)[C@H]4COC(=O)O4)n3Cc3ccccc32)ccc1C1=CCCCC1 [Example 7, 10-(4-Cyclohex-1-en-1-yl-3-methylbenzoyl)-N-[((4S,5S)-5-{(R)-hydroxy[(4R)-2-oxo-1,3-dioxolan-4-yl]methyl}-2-oxo-1,3-dioxolan-4-yl)methyl]-N-methyl-10,11-dihydro-5H-pyrrolo[2,1-c][1,4]benzodiazepine-3-carboxamide]",62,

# Same assay, conditions: value in parentheses
row,SMILES,pIC50
1,"COc1cc(C2=CCCCC2)c(Cl)cc1C(=O)N1Cc2ccc(C(=O)N(C)C[C@H](O)[C@@H](O)[C@H](O)[C@H](O)CO)n2Cc2ccccc21 [Example 1, 1-[[[10-[5-Chloro-4-(1-cyclohex-1-en-1-yl)-2-methoxybenzoyl]-10,11-dihydro-5H-pyrrolo[2,1-c][1,4]benzodiazepin-3-yl]carbonyl]methylamino]-1-deoxy-D-glucitol]",6.06
2,"COC[C@@H](OC)[C@@H](OC)[C@H](OC)[C@H](CN(C)C(=O)c1ccc2n1Cc1ccccc1N(C(=O)c1cc(Cl)c(C3=CCCCC3)cc1OC)C2)OC [Example 2, 10-(5-Chloro-4-cyclohex-1-en-1-yl-2-methoxybenzoyl)-N-methyl-N-[(2S,3R,4R,5R)-2,3,4,5,6-pentamethoxyhexyl]-10,11-dihydro-5H-pyrrolo[2,1-c][1,4]benzodiazepine-3-carboxamide]",5.66
3,"COc1cc(C2=CCCCC2)c(Cl)cc1C(=O)N1Cc2ccc(C(=O)N(C)C[C@@H]3OC(=O)O[C@H]3[C@H](O)[C@H]3COC(=O)O3)n2Cc2ccccc21 [Example 3, 10-(5-Chloro-4-cyclohex-1-en-1-yl-2-methoxybenzoyl)-N-[((4S,5S)-5-{(R)-hydroxy[(4R)-2-oxo-1,3-dioxolan-4-yl]methyl}-2-oxo-1,3-dioxolan-4-yl)methyl]-N-methyl-10,11-dihydro-5H-pyrrolo[2,1-c][1,4]benzodiazepine-3-carboxamide]",5.84
4,"COc1cc(C2=CCCCC2)c(Cl)cc1C(=O)N1Cc2ccc(C(=O)N(C)CC(O)CO)n2Cc2ccccc21 (stereo not shown) [Example 4, 10-(5-Chloro-4-cyclohex-1-en-1-yl-2-methoxybenzoyl)-N-(2,3-dihydroxypropyl)-N-methyl-10,11-dihydro-5H-pyrrolo[2,1-c][1,4]benzodiazepine-3-carboxamide]",6.21
5,Cc1cc(C(=O)N2Cc3ccc(C(=O)N(C)C[C@H](O)[C@@H](O)[C@H](O)[C@H](O)CO)n3Cc3ccccc32)ccc1C1=CCCCC1 [Example 5],6.74
6,"Cc1cc(C(=O)N2Cc3ccc(C(=O)N(C)C[C@H](O)[C@H]4OC(=O)O[C@@H]4[C@H](O)CO)n3Cc3ccccc32)ccc1C1=CCCCC1 [Example 6, 10-(4-Cyclohex-1-en-1-yl-3-methylbenzoyl)-N-((2S)-2-{(4R,5R)-5-[(1R)-1,2-dihydroxyethyl]-2-oxo-1,3-dioxolan-4-yl}-2-hydroxyethyl)-N-methyl-10,11-dihydro-5H-pyrrolo[2,1-c][1,4]benzodiazepine-3-carboxamide]",7.20
